Test results published in patent US12226424B2, “Target protein degradation compounds, their anti-tumor use, their intermediates and use of intermediates” (ShanghaiTech University, priority 2018, dated 2025).
Read-outs that look alike come from different tables or passages of the source. One block for each compound: values may come before it.

Legend:
[1] = tested on: K562 cells (BCR-ABL positive); experiment: Half inhibitory concentration (IC50) on tumor cells, CCK-8, K562; conditions: read-out: IC50 (nM)/K562 cell line
Method: Determination of Half Inhibitory Concentration (IC50) of PROTAD Compounds on Tumor Cells
K562 cells were seeded in 100 μL of RPMI1640 complete medium at a density of 20,000 cells/well. 100 μL of the inoculated cells were treated with 100 μL diluted PROTAD compound of the present disclosure to be tested at 9 successively decreasing concentrations (starting at the highest concentration of 10 μM; 3-fold serial dilutions). After the cells were treated with the tested drugs for 48 hours, the cell viability determination was performed in accordance with CCK-8 reagent operating instructions. The negative control was DMSO, and positive control was a commercial inhibitor. After CCK-8 treatment for 2 h, the value of O.D.450 was measured using a microplate reader.

U937 cells = experiment: Proliferation inhibition (IC50) on non-BCR-ABL-positive U937 cells
HEK293 cells = experiment: Proliferation inhibition (IC50) on non-BCR-ABL-positive HEK293 cells
MM1S cells [2] = experiment: Half inhibitory concentration (IC50) on MM1S tumor cell proliferation (CCK-8); type: cell-based; conditions: Homo sapiens, MM1.S, MM1S cell proliferation inhibitory activity, 72 hours of treatment, read-out: IC50(nM)/MM1S cell line
Method: The multiple myeloma cell line used was: MM1S (myeloma (immunoglobulin A lambda), B lymphoblasts), purchased from American Type Culture Collection (ATCC). The medium is RPMI1640 supplemented with 10% FBS and 1% Penicillin-Streptomycin (penicillin and streptomycin). The cells used were identified as correct cells by STR cells, and were negative for mycoplasma through routine inspections.
(§1) The cells used in this present disclosure were cultured in a 37° C. incubator containing 5% CO2. The complete cell culture medium was RPMI 1640 medium with 10% fetal bovine serum, and the final concentrations of penicillin and streptomycin were 100 U/mL, respectively.
MM1S cells were seeded in 100 μL RPMI1640 complete medium at a density of 15000 cells/well. 100 μL of the inoculated cells were treated with 0.5 μL diluted thio-substituted compound of formula (IV) to be tested of the present disclosure at 10 successively decreasing concentrations (starting at the highest concentration of 10 μM/1 μM; 5-fold serial dilutions). After 72 hours of treatment, the cell viability was determined according to the CCK-8 reagent operating instructions. The negative control was DMSO, and the positive control was a commercial inhibitor. After CCK-8 treatment for 2 h, the value of O.D.450 was measured using a microplate reader.

MDA-MB-231 cells = experiment: Half inhibitory concentration (IC50) on BET-expressing tumor cells, CCK-8, MDA-MB-231; type: cell-based; conditions: Homo sapiens, 48/72 h, read-out: IC50 (nM)/MDA-MB-231 cell line
Method: (§2) BET-expressing cells MV-4-11 cells (human B granulocytic leukemia cells), MDA-MB-231 cells (human breast cancer cells), MDA-MB-468 cells (human breast cancer cells), MDA-MB-453 Cells (human breast cancer cells), MM1S cells (myeloma (immunoglobulin A lambda), B lymphoblasts) and SR cells (human large cell immunoblast lymphoma) were purchased from the American Type Culture Collection (ATCC).
as §1, with “1640/IMDM/DMEM” for “1640”, “respectively. All cells were tested negative for mycoplasma with mycoplasma detection kit before the experiment.” for “respectively.”
(§3) Determination of the Half Inhibitory Concentration (IC50) of PROTAD Compounds on Tumor Cells
(§4) MV-411 cells, MM1S cells and SR cells were seeded in 100 μL IMDM/RPMI1640/DMEM complete medium at a density of 15000/10000 cells/well; MDA-MB-231 cells, MDA-MB-468 cells, and MDA-MB453 cells were seeded in 100 μL IMDM/RPMI1640/DMEM complete medium at a density of 3000/5000 cells/well, respectively. 100 μL of the inoculated cells were treated with 0.5 μL diluted PROTAD compounds of the present disclosure to be tested at 10 successively decreasing concentrations (starting at the highest concentration of 10 μM; 5-fold serial dilutions). After the cells were treated with the tested drugs 48/72 h, the cell viability was determined according to the CCK-8 reagent manual. The negative control was DMSO, and the positive control was a commercial inhibitor. After CCK-8 treatment for 2 h, the value of O.D.450 was measured using a microplate reader.

MDA-MB-468 cells = experiment: Half inhibitory concentration (IC50) on BET-expressing tumor cells, CCK-8, MDA-MB-468; type: cell-based; conditions: Homo sapiens, 48/72 h, read-out: IC50 (nM)/MDA-MB-468 cell line
Method: as §2
as §1, with “1640/IMDM/DMEM” for “1640”, “respectively. All cells were tested negative for mycoplasma with mycoplasma detection kit before the experiment.” for “respectively.”
as §3, §4

MDA-MB-453 cells = experiment: Half inhibitory concentration (IC50) on BET-expressing tumor cells, CCK-8, MDA-MB-453; type: cell-based, human; conditions: 48/72 h, read-out: IC50 (nM)/MDA-MB-453 cell line
Method: as §2
as §1, with “1640/IMDM/DMEM” for “1640”, “respectively. All cells were tested negative for mycoplasma with mycoplasma detection kit before the experiment.” for “respectively.”
as §3, §4

MM1S cells [3] = experiment: Half inhibitory concentration (IC50) on BET-expressing tumor cells, CCK-8, MM1S; type: cell-based; conditions: Homo sapiens, MM1.S, 48/72 h, read-out: IC50 (nM)/MM1S cell line
Method: as §2
as §1, with “1640/IMDM/DMEM” for “1640”, “respectively. All cells were tested negative for mycoplasma with mycoplasma detection kit before the experiment.” for “respectively.”
as §3, §4

MV-4-11 cells = experiment: Half inhibitory concentration (IC50) on BET-expressing tumor cells, CCK-8, MV-4-11; conditions: Homo sapiens, MV4-11, read-out: IC50 (nM)/MV-4-11 cell line, MV-4-11 cells, 48/72 h, CCK-8
[4] = Homo sapiens, U-937, read-out: IC50 (nM)/U937 cell line
[5] = Homo sapiens, HEK293, read-out: IC50 (nM)/HEK293 cell line
[6] = Homo sapiens, MDA-MB-453, MDA-MB-453 cells

Structure (SMILES): COc1cc(Nc2c(C#N)cnc3cc(OCCCN4CCN(C)CC4)c(OC)cc23)c(Cl)cc1Cl [Bosutinib, reference compound]
IC50 ([1]; Homo sapiens, K562, 48 h): 92.6 nM
IC50 (U937 cells; [4]): > 10000 nM
IC50 (HEK293 cells; [5]): > 10000 nM

Structure (SMILES): Nc1cccc2c1C(=O)N(C1CCC(=O)NC1=O)C2=O (stereo not drawn) [Pomalidomide, reference compound]
IC50 (MM1S cells [2]): 9.38 nM

Structure (SMILES): Cc1sc2c(c1C)C(c1ccc(Cl)cc1)=N[C@@H](CC(=O)NCCCCCCCCSc1cccc3c1C(=O)N(C1CCC(=O)NC1=O)C3=O)c1nnc(C)n1-2 (stereo partly drawn) [SIAIS171049, 2-((S)-4-(4-chlorophenyl)-2,3,9-trimethyl-6H-thieno[3,2-f][1,2,4]triazolo[4,3-a][1,4]diazepin-6-yl)-N-(8-((2-(2,6-dioxopiperidin-3-yl)-1,3-dioxoisoindolin-4-yl)thio)octyl)acetamide]
IC50 (MDA-MB-231 cells): 645 ± 249 nM
IC50 (MDA-MB-468 cells): 1730 ± 1650 nM
IC50 (MDA-MB-453 cells; [6]): 166 nM
IC50 (MDA-MB-453 cells; MDA-MB-453 cells): 237 nM
IC50 (MM1S cells [3]): 3.06 nM
IC50 (MV-4-11 cells): 7.2 ± 9.2 nM

Structure (SMILES): Cc1nc(Nc2ncc(C(=O)Nc3c(C)cccc3Cl)s2)cc(N2CCN(C(=O)CCCCCCSc3cccc4c3CN(C3CCC(=O)NC3=O)C4=O)CC2)n1 (stereo not drawn) [SIAIS171110, N-(2-chloro-6-methylphenyl)-2-((6-(4-(7-((2-(2,6-dioxopiperidin-3-yl)-1-oxoisoindolin-4-yl)thio)heptanoyl)piperazin-1-yl)-2-methylpyrimidin-4-yl)amino)thiazole-5-carboxamide]
IC50 ([1]; Homo sapiens, K562, 48 h): 1.33 nM
IC50 (U937 cells; [4]): > 10000 nM
IC50 (HEK293 cells; [5]): > 10000 nM

Structure (SMILES): NCCSc1cccc2c1CN(C1CCC(=O)NC1=O)C2=O (stereo not drawn) [SIAIS171123, 3-(4-((2-aminoethyl)thio)-1-oxoisoindolin-2-yl)piperidine-2,6-dione]
IC50 (MM1S cells [2]): 71.4 nM

Structure (SMILES): NCCCSc1cccc2c1CN(C1CCC(=O)NC1=O)C2=O (stereo not drawn) [SIAIS171124, 3-(4-((3-aminopropyl)thio)-1-oxoisoindolin-2-yl)piperidine-2,6-dione]
IC50 (MM1S cells [2]): 56.9 nM

Structure (SMILES): NCCCCSc1cccc2c1CN(C1CCC(=O)NC1=O)C2=O (stereo not drawn) [SIAIS171131, 3-(4-((4-aminobutyl)thio)-1-oxoisoindolin-2-yl)piperidine-2,6-dione]
IC50 (MM1S cells [2]): 6.61 nM

Structure (SMILES): NCCCCCSc1cccc2c1CN(C1CCC(=O)NC1=O)C2=O (stereo not drawn) [SIAIS171132, 3-(4-((5-aminopentyl)thio)-1-oxoisoindolin-2-yl)piperidine-2,6-dione]
IC50 (MM1S cells [2]): 8.27 nM

Structure (SMILES): NCCCCCCSc1cccc2c1CN(C1CCC(=O)NC1=O)C2=O (stereo not drawn) [SIAIS171134, 3-(4-((6-aminohexyl)thio)-1-oxoisoindolin-2-yl)piperidine-2,6-dione]
IC50 (MM1S cells [2]): 4.77 nM

Structure (SMILES): Cc1sc2c(c1C)C(c1ccc(Cl)cc1)=N[C@@H](CC(=O)NCCSc1cccc3c1CN(C1CCC(=O)NC1=O)C3=O)c1nnc(C)n1-2 (stereo partly drawn) [SIAIS171138, 2-((S)-4-(4-chlorophenyl)-2,3,9-trimethyl-6H-thieno[3,2-f][1,2,4]triazolo[4,3-a][1,4]diazepin-6-yl)-N-(2-((2-(2,6-dioxopiperidin-3-yl)-1-oxoisoindolin-4-yl)thio)ethyl)acetamide]
IC50 (MDA-MB-231 cells): > 10000 nM
IC50 (MDA-MB-468 cells): > 1740 nM
IC50 (MDA-MB-453 cells; [6]): 2630 nM
IC50 (MDA-MB-453 cells; MDA-MB-453 cells): 2800 nM
IC50 (MM1S cells [3]): 3.1 nM
IC50 (MV-4-11 cells): 8.6 ± 9.1 nM

Structure (SMILES): Cc1sc2c(c1C)C(c1ccc(Cl)cc1)=N[C@@H](CC(=O)NCCCSc1cccc3c1CN(C1CCC(=O)NC1=O)C3=O)c1nnc(C)n1-2 (stereo partly drawn) [SIAIS171139, 2-((S)-4-(4-chlorophenyl)-2,3,9-trimethyl-6H-thieno[3,2-f][1,2,4]triazolo[4,3-a][1,4]diazepin-6-yl)-N-(3-((2-(2,6-dioxopiperidin-3-yl)-1-oxoisoindolin-4-yl)thio)propyl)acetamide]
IC50 (MDA-MB-231 cells): > 10000 nM
IC50 (MDA-MB-468 cells): > 10000 nM
IC50 (MDA-MB-453 cells; [6]): 452 nM
IC50 (MM1S cells [3]): 2.03 nM
IC50 (MV-4-11 cells): 1.1 ± 0.6 nM

The next lines start with results.

IC50 (MM1S cells [2]): 4.31 nM
Structure (SMILES): NCCCCCCCSc1cccc2c1CN(C1CCC(=O)NC1=O)C2=O (stereo not drawn) [SIAIS171135, 3-(4-((7-aminoheptyl)thio)-1-oxoisoindolin-2-yl)piperidine-2,6-dione]

IC50 (MM1S cells [2]): 4.22 nM
Structure (SMILES): NCCCCCCCCSc1cccc2c1CN(C1CCC(=O)NC1=O)C2=O (stereo not drawn) [SIAIS171136, 3-(4-((8-aminooctyl)thio)-1-oxoisoindolin-2-yl)piperidine-2,6-dione]

IC50 (MDA-MB-231 cells): 55 ± 31 nM
IC50 (MDA-MB-468 cells): 9.6 ± 2.9 nM
IC50 (MDA-MB-453 cells; [6]): 52.3 nM
IC50 (MDA-MB-453 cells; MDA-MB-453 cells): 63.9 nM
IC50 (MM1S cells [3]): 0.7 nM
IC50 (MV-4-11 cells): 0.9 ± 0.8 nM
Structure (SMILES): Cc1sc2c(c1C)C(c1ccc(Cl)cc1)=N[C@@H](CC(=O)NCCCCCCCSc1cccc3c1CN(C1CCC(=O)NC1=O)C3=O)c1nnc(C)n1-2 (stereo partly drawn) [SIAIS171144, 2-((S)-4-(4-chlorophenyl)-2,3,9-trimethyl-6H-thieno[3,2-f][1,2,4]triazolo[4,3-a][1,4]diazepin-6-yl)-N-(7-((2-(2,6-dioxopiperidin-3-yl)-1-oxoisoindolin-4-yl)thio)heptyl)acetamide]

IC50 (MDA-MB-231 cells): 537 ± 148 nM
IC50 (MDA-MB-468 cells): 948 ± 241 nM
IC50 (MDA-MB-453 cells; [6]): 135 nM
IC50 (MDA-MB-453 cells; MDA-MB-453 cells): 222 nM
IC50 (MM1S cells [3]): 1.2 nM
IC50 (MV-4-11 cells): 2 ± 1.8 nM
Structure (SMILES): Cc1sc2c(c1C)C(c1ccc(Cl)cc1)=N[C@@H](CC(=O)NCCCCCCCCSc1cccc3c1CN(C1CCC(=O)NC1=O)C3=O)c1nnc(C)n1-2 (stereo partly drawn) [SIAIS171145, 2-((S)-4-(4-chlorophenyl)-2,3,9-trimethyl-6H-thieno[3,2-f][1,2,4]triazolo[4,3-a][1,4]diazepin-6-yl)-N-(8-((2-(2,6-dioxopiperidin-3-yl)-1-oxoisoindolin-4-yl)thio)octyl)acetamide]

IC50 (MM1S cells [2]): 1.27 ± 0.13 nM
Structure (SMILES): O=C1CCC(N2Cc3c(SCCCCCCBr)cccc3C2=O)C(=O)N1 (stereo not drawn) [SIAIS1216133, 3-(4-(6-bromohexylthio)-1-oxoisoindolin-2-yl)piperidine-2,6-dione]

IC50 (MM1S cells [2]): 1.23 ± 0.42 nM
Structure (SMILES): O=C1CCC(N2Cc3c(SCCCCCCCBr)cccc3C2=O)C(=O)N1 (stereo not drawn) [SIAIS1216135, 3-(4-(7-bromoheptylthio)-1-oxoisoindolin-2-yl)piperidine-2,6-dione]

IC50 (MM1S cells [2]): 1.58 ± 0.71 nM
Structure (SMILES): O=C1CCC(N2Cc3c(SCCCCCCCCBr)cccc3C2=O)C(=O)N1 (stereo not drawn) [SIAIS1216137, 3-(4-((8-bromooctyl)thio)-1-oxoisoindolin-2-yl)piperidine-2,6-dione]

IC50 (MM1S cells [2]): 1.98 nM
Structure (SMILES): O=C1CCC(N2Cc3c(SCCCCCCCCCCBr)cccc3C2=O)C(=O)N1 (stereo not drawn) [SIAIS1220013, 3-(4-((10-bromodecyl)thio)-1-oxoisoindolin-2-yl)piperidine-2,6-dione]

IC50 (MM1S cells [2]): 3.45 nM
Structure (SMILES): O=C1CCC(N2Cc3c(SCCCCCCCCCCCBr)cccc3C2=O)C(=O)N1 (stereo not drawn) [SIAIS1220015, 3-(4-((11-bromoundecyl)thio)-1-oxoisoindolin-2-yl)piperidine-2,6-dione]

IC50 ([1]; K562 cells, 48 hours, CCK-8): 0.53 nM
IC50 (U937 cells; read-out: IC50 (nM)/U937 cell line, U937 cells, highest concentration 10 μM): > 10000 nM
Structure (SMILES): Cc1nc(Nc2ncc(C(=O)Nc3c(C)cccc3Cl)s2)cc(N2CCN(C(=O)CCCCCSc3cccc4c3CN(C3CCC(=O)NC3=O)C4=O)CC2)n1 (stereo not drawn) [SIAIS 171109]
IC50 (HEK293 cells; read-out: IC50 (nM)/HEK293 cell line, HEK293 cells, highest concentration 10 μM): > 10000 nM
